Source: patent US7048907B2, “Synthesis, compositions and methods for the measurement of the concentration of stable-isotope labeled compounds in life forms and life form excretory products” (BioPhysics Assay Laboratory, Inc., priority 2001, dated 2006)

Experiments:
[1] = Assay of chelate on carboxymethyl (CM) Sephadex column (chelate formation, charge); type: physicochemical; settings: for time within which the chelate forms: room temperature, Tris pH 7.5
Method: Preparation of carboxymethyl sephadex column. To two 10 ml plastic pipets cut off at the 3 ml mark and plugged with glass wool at the bottom add enough slurry to form a 2 ml volume of the CM sephadex. Wash the packed resin with 6 ml of 1 M Tris buffer pH 7.5, and 6 ml of 0.01M Tris buffer pH 7.5. […] Collect the eluants of fractions as follows. Fraction 1.3 ml of 0.01 M Tris buffer pH 7.5 and allow to drain into column. Fraction 2.1 ml of sample (gadolinium-DTPA or gadolinium chloride) and allow to drain into column. Apply 3 ml of 0.01 M Tris buffer pH 7.5 and allow to drain into column. Fraction 3.3 ml of 0.01M Tris buffer pH 7.5 and allow to drain into column. Dry all fractions at 70° C. for 76 hours, dissolve in 1 ml of 1 mM HCl and assay by atomic absorption.
(§1) Preparation of carboxymethyl Sephadex column. To two 10 ml plastic pipets which had been cut off at the 3 ml mark and plugged with glass wool at the bottom, enough slurry was added to form a 2 ml volume of the CM Sephadex. The packed resin was wash with 6 ml of 1 M Tris buffer pH 7.5, and 6 ml of 0.01M Tris buffer pH 7.5. […] Fractions were applied as follows. Fraction 1. Three ml of 0.01 M Tris buffer pH 7.5 and allow to drain into column. Fraction 2. One ml of sample (samarium-DTPA or samarium chloride) and allow to drain into column. Apply 3 ml of 0.01 M Tris buffer pH 7.5 and allow to drain into column. Fraction 3. Three ml of 0.01M Tris buffer pH 7.5 and allow to drain into column. Collect the eluant of fractions 1 through 3. Fraction 4. Column and contents.
as §1, with “were” for “had been”, “washed” for “wash”, “(lanthanum-DTPA” for “(samarium-DTPA”, “lanthanum” for “samarium”
as §1, with “were” for “had been”, “washed” for “wash”, “(Europium-DTPA” for “(samarium-DTPA”, “Europium” for “samarium”
Preparation of carboxymethyl sephadex column. To a 10 ml plastic pipet cut off at the 3 ml mark and plugged with glass wool at the bottom, add enough slurry to form a 2 ml volume of the CM sephadex. Wash the packed resin with 6 ml of 1 M Tris buffer pH 7.5, and 6 ml of 0.01M Tris buffer pH 7.5. […] Apply fractions as follows. Fraction 1. One ml of sample A and allow to drain into column.

[2] = Kinetics of blood depletion and urine accumulation of chelates in the rat; type: in vivo; settings: average of three rats
Method: One half ml of Sm-DTPA (0.01 mg/kg), dissolved in saline (pH 7), is injected into the tail vein of three rats. Samples of blood are obtained at 10, 30 and 60 minutes following injection and analyzed for Sm-DTPA by neutron activation. The percent of starting amount of the Sm-DTPA at each time interval is presented in Table 18 (last column on right). Similarly, the accumulation of Sm-DTPA in the rat urine at two times is shown in the last column of Table 18.
One half ml of Technetium-99m-DTPA (1 millicurie), Gd-DTPA (0.05 mg/kg), and Sm-DTPA (0.01 mg/kg) are each dissolved in saline (pH 7), and are injected simultaneously into the tail vein of three rats. Samples of blood are obtained at 10, 30 and 60 minutes following injection and analyzed for ^99mTc-DTPA (gamma counting), Gd-DTPA (T1 relaxation) and Sm-DTPA (neutron activation).
One half ml of Sm-DTPA, La-DTPA and Eu-DTPA (each 0.01 mg/kg), dissolved in saline (pH 7) are injected simultaneously into the tail vein of three rats. Samples of blood are obtained at 10, 30 and 60 minutes following injection and analyzed for each element by neutron activation.
Samples of Sm-DTPA, La-DTPA and Eu-DTPA (0.5 ml; 0.01 mg/kg), each dissolved in saline (pH 7), are injected sequentially at 0, 20, and 40 minutes into the tail vein of three rats. Samples of blood are obtained at 10, 30 and 60 min following each injection and analyzed for each element by neutron activation.

[3] = Stability of chelates to autoclaving (CM-Sephadex assay); type: physicochemical; settings: for % of total / dpm: autoclaved 30 minutes at 121° C.
Method: A sample comprising 5 ml of Sm-DTPA, La-DTPA, and Eu-DTPA prepared in Examples 9, 10, and 11 were placed in 10 ml glass bottles, each capped with a grey butyl rubber cap, and the caps were crimped. Samples were autoclaved for 30 minutes at 121° C.
Five ml of each of Sm-DOTA, La-DOTA, and Eu-DOTA prepared in Examples 13, 14, and 15 were placed in 10 ml glass bottles capped with a grey butyl rubber cap and crimped. Samples were autoclaved for 30 minutes at 121° C. Samples were allowed to cool to room temperature and were assayed as described in Examples 25.

[4] = Fraction 1: 3 ml 0.01M Tris pH 7.5 before sample
[5] = Fraction 2: 1 ml sample then 3 ml 0.01M Tris pH 7.5 (eluate)
[6] = Fraction 3: further 3 ml 0.01M Tris pH 7.5
[7] = blood 10 min after i.v. injection, ^99mTc-DTPA, Gd-DTPA and Sm-DTPA simultaneously administered (Example 30)
[8] = blood 30 min, ^99mTc-DTPA, Gd-DTPA and Sm-DTPA simultaneously administered (Example 30)
[9] = blood 60 min, ^99mTc-DTPA, Gd-DTPA and Sm-DTPA simultaneously administered (Example 30)
[10] = urine 30 min, ^99mTc-DTPA, Gd-DTPA and Sm-DTPA simultaneously administered (Example 30)
[11] = urine 180 min, ^99mTc-DTPA, Gd-DTPA and Sm-DTPA simultaneously administered (Example 30)
[12] = Fraction 1: sample diluted 1:10 then 2-3 ml 0.01M Tris pH 7.5 (eluate)
[13] = Fraction 2: 3 ml 0.01M Tris pH 7.5
[14] = Fraction 3: column and contents (retained)
[15] = Fraction 4: column and contents (retained)
[16] = blood 10 min, Sm-DTPA, La-DTPA and Eu-DTPA (each 0.01 mg/kg i.v.) simultaneously administered (Example 31)
[17] = blood 10 min after each injection, Sm-DTPA, La-DTPA, Eu-DTPA (0.01 mg/kg i.v.) sequentially administered at 0, 20, 40 minutes (Example 32)
[18] = blood 30 min, Sm-DTPA, La-DTPA and Eu-DTPA simultaneously administered (Example 31)
[19] = blood 30 min after each injection, sequentially administered (Example 32)
[20] = blood 60 min, Sm-DTPA, La-DTPA and Eu-DTPA simultaneously administered (Example 31)
[21] = blood 60 min after each injection, sequentially administered (Example 32)
[22] = urine 30 min, Sm-DTPA, La-DTPA and Eu-DTPA simultaneously administered (Example 31)
[23] = urine 30 min, sequentially administered (Example 32)
[24] = urine 180 min, Sm-DTPA, La-DTPA and Eu-DTPA simultaneously administered (Example 31)
[25] = urine 180 min, sequentially administered (Example 32)

## O=C([O-])CN(CCN(CC(=O)[O-])CC(=O)O)CCN(CC(=O)[O-])CC(=O)O.[Gd+3] [Gd-DTPA, Gd-diethylenetriaminepentaacetic acid]
[1]
  % eluted from the CM-Sephadex column: 100%
  time within which the chelate forms: ≤ 5 min
[1]; [4]
  % of total: 0 % of total
[1]; [5]
  % of total: 100 % of total
[1]; [6]
  % of total: 0 % of total
[2]; [7]
  Percent of initial injection, blood: 83% of initial injection
[2]; [8]
  Percent of initial injection, blood: 65% of initial injection
[2]; [9]
  Percent of initial injection, blood: 35% of initial injection
[2]; [10]
  Percent of initial injection, urine: 22% of initial injection
[2]; [11]
  Percent of initial injection, urine: 94% of initial injection

## O=C([O-])CN(CCN(CC(=O)[O-])CC(=O)[O-])CCN(CC(=O)[O-])CC(=O)[O-].[La+3] [La-DTPA]
[3]
  % eluted from CM-Sephadex column following autoclaving: 100%
[3]; [12]
  % of total: 97 % of total
  dpm: 411400 dpm
[3]; [13]
  % of total: 3 % of total
  dpm: 12180 dpm
[3]; [14]
  % of total: 0 % of total
  dpm: 0 dpm
[1]
  % eluted from the CM-Sephadex column: 100%
  time within which the chelate forms: ≤ 5 min
[1]; [4]
  % of total: 0 % of total
  dpm: 0 dpm
[1]; [5]
  % of total: 100 % of total
  dpm: 489692 dpm
[1]; [6]
  % of total: 0 % of total
  dpm: 0 dpm
[1]; [15]
  % of total: 0 % of total
  dpm: 0 dpm
[2]; [16]
  Percent of initial injection, blood: 85% of initial injection
[2]; [17]
  Percent of initial injection, blood: 82% of initial injection
[2]; [18]
  Percent of initial injection, blood: 63% of initial injection
[2]; [19]
  Percent of initial injection, blood: 62% of initial injection
[2]; [20]
  Percent of initial injection, blood: 33% of initial injection
[2]; [21]
  Percent of initial injection, blood: 32% of initial injection
[2]; [22]
  Percent of initial injection, urine: 23% of initial injection
[2]; [23]
  Percent of initial injection, urine: 25% of initial injection
[2]; [24]
  Percent of initial injection, urine: 92% of initial injection
[2]; [25]
  Percent of initial injection, urine: 95% of initial injection

## O=C([O-])CN(CCN(CC(=O)[O-])CC(=O)[O-])CCN(CC(=O)[O-])CC(=O)[O-].[Sm+3] [Sm-DTPA]
[3]
  % eluted from CM-Sephadex column following autoclaving: 100%
[3]; [12]
  % of total: 98 % of total
  dpm: 1128928 dpm
[3]; [13]
  % of total: 2 % of total
  dpm: 26387 dpm
[3]; [14]
  % of total: 0 % of total
  dpm: 1867 dpm
[1]
  % eluted from the CM-Sephadex column: 98%
  time within which the chelate forms: ≤ 5 min
[1]; [4]
  % of total: 0 % of total
  dpm: 0 dpm
[1]; [5]
  % of total: 97 % of total
  dpm: 148208 dpm
[1]; [6]
  % of total: 1 % of total
  dpm: 19089 dpm
[1]; [15]
  % of total: 2 % of total
  dpm: 24257 dpm
[2]; blood 10 min, Sm-DTPA 0.01 mg/kg i.v. administered alone (Example 29)
  Percent of initial injection, blood: 86% of initial injection
[2]; [16]
  Percent of initial injection, blood: 83% of initial injection
[2]; [17]
  Percent of initial injection, blood: 81% of initial injection
[2]; [7]
  Percent of initial injection, blood: 88% of initial injection
[2]; blood 30 min, Sm-DTPA 0.01 mg/kg i.v. administered alone (Example 29)
  Percent of initial injection, blood: 61% of initial injection
[2]; [18]
  Percent of initial injection, blood: 61% of initial injection
[2]; [8]
  Percent of initial injection, blood: 60% of initial injection
[2]; [19]
  Percent of initial injection, blood: 59% of initial injection
[2]; blood 60 min, Sm-DTPA 0.01 mg/kg i.v. administered alone (Example 29)
  Percent of initial injection, blood: 28% of initial injection
[2]; [20]
  Percent of initial injection, blood: 34% of initial injection
[2]; [9]
  Percent of initial injection, blood: 33% of initial injection
[2]; [21]
  Percent of initial injection, blood: 29% of initial injection
[2]; urine 30 min, Sm-DTPA 0.01 mg/kg i.v. administered alone (Example 29)
  Percent of initial injection, urine: 24% of initial injection
[2]; [22]
  Percent of initial injection, urine: 22% of initial injection
[2]; [10]
  Percent of initial injection, urine: 26% of initial injection
[2]; [23]
  Percent of initial injection, urine: 20% of initial injection
[2]; urine 180 min, Sm-DTPA 0.01 mg/kg i.v. administered alone (Example 29)
  Percent of initial injection, urine: 91% of initial injection
[2]; [24]
  Percent of initial injection, urine: 90% of initial injection
[2]; [11]
  Percent of initial injection, urine: 90% of initial injection
[2]; [25]
  Percent of initial injection, urine: 89% of initial injection
